In PubChem BioAssay AID256 (DTP/NCI, 2004):
Inconclusive results and toxic doses are left out. Rule for the calls: active = survival T/C of 150% or more; inactive = T/C below 125% in these data.

System: CD2F1 mice, L1210 leukemia ip, survival T/C
Assay: NCI In Vivo Anticancer Drug Screen. Data for tumor model L1210 Leukemia (intraperitoneal) in CD2F1 (CDF1) mice
Conditions: higher = longer survival
Method in brief: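 Implant tumor; dose compound or vehicle; measure endpoint in both groups; report treated divided by control.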

[1] = endpoint: mean survival time, dose: 100.0 mg/kg/injection, schedule: Q04DX002 (ip), vehicle: saline with Tween-80
[2] = endpoint: mean survival time, dose: 200.0 mg/kg/injection, schedule: Q04DX002 (ip), vehicle: saline with Tween-80
[3] = endpoint: mean survival time, dose: 100.0 mg/kg/injection, schedule: Q04DX003 (ip), vehicle: saline with Tween-80
[4] = endpoint: mean survival time, dose: 200.0 mg/kg/injection, schedule: Q04DX003 (ip), vehicle: saline with Tween-80
[5] = endpoint: mean survival time, dose: 400.0 mg/kg/injection, schedule: Q04DX003 (ip), vehicle: saline with Tween-80
[6] = endpoint: mean survival time, dose: 100.0 mg/kg/injection, schedule: Q01DX009 (ip), vehicle: saline with Tween-80
[7] = endpoint: mean survival time, dose: 200.0 mg/kg/injection, schedule: Q01DX009 (ip), vehicle: saline with Tween-80
[8] = endpoint: mean survival time, dose: 400.0 mg/kg/injection, schedule: Q01DX009 (ip), vehicle: saline with Tween-80
[9] = endpoint: mean survival time, dose: 400.0 mg/kg/injection, schedule: Q04DX002 (ip), vehicle: saline with Tween-80

Measured: T/C

COc1ccc(C2N(C)CCCN2C)c(OC)c1
inactive: endpoint: mean survival time, dose: 6.25 mg/kg/injection, schedule: Q01DX009 (ip), vehicle: saline sonified 103 % of control | endpoint: mean survival time, dose: 6.25 mg/kg/injection, schedule: Q04DX003 (ip), vehicle: saline sonified 101 % of control | endpoint: mean survival time, dose: 12.5 mg/kg/injection, schedule: Q01DX009 (ip), vehicle: saline sonified 103 % of control | endpoint: mean survival time, dose: 12.5 mg/kg/injection, schedule: Q04DX003 (ip), vehicle: saline sonified 108 % of control | endpoint: mean survival time, dose: 25.0 mg/kg/injection, schedule: Q01DX009 (ip), vehicle: saline sonified 98 % of control | endpoint: mean survival time, dose: 25.0 mg/kg/injection, schedule: Q04DX003 (ip), vehicle: saline sonified 100 % of control

Nc1ccccc1-c1n[nH]c2ccccc12
inactive: endpoint: mean survival time, dose: 25.0 mg/kg/injection, schedule: Q04DX002 (ip), vehicle: saline with Tween-80 110 % of control | endpoint: mean survival time, dose: 50.0 mg/kg/injection, schedule: Q04DX002 (ip), vehicle: saline with Tween-80 103 % of control | [1] 103 % of control | [2] 100 % of control

CCCCCCCC/C=C/CCCCCCCCCCCCCCBr
inactive: [3] 104 % of control | [4] 98 % of control | [5] 93 % of control

CN(C=O)c1ccc(C(=O)NC(CCC(=O)OCc2ccccc2)C(=O)OCc2ccccc2)cc1 (centres undefined)
inactive: [6] 94 % of control | [3] 105 % of control | [7] 89 % of control | [4] 92 % of control | [8] 89 % of control | [5] 89 % of control

CCCCCCCC/C=C\CCCCCCCC(=O)OCCCCCCCC
inactive: [1] 95 % of control | [2] 95 % of control | [9] 102 % of control

O=[N+]([O-])C1C2C=CC(C2)C1c1ccccc1 (centres undefined)
inactive: [6] 102 % of control | [3] 98 % of control | [7] 95 % of control | [4] 102 % of control | [8] 98 % of control | [5] 102 % of control

CC(C)N(Cl)S(C)(=O)=O
inactive: endpoint: mean survival time, dose: 25.0 mg/kg/injection, schedule: Q04DX003 (ip), vehicle: saline with Tween-80 97 % of control | endpoint: mean survival time, dose: 50.0 mg/kg/injection, schedule: Q04DX003 (ip), vehicle: saline with Tween-80 93 % of control | [3] 95 % of control

ClC1CCC(Cl)C2CCC3C(Cl)CCC1[S+]23 (centres undefined)
inactive: endpoint: mean survival time, dose: 3.12 mg/kg/injection, schedule: Q01DX009 (ip), vehicle: Klucel (hydroxypropylcellulose) (HPC) 104 % of control | endpoint: mean survival time, dose: 6.25 mg/kg/injection, schedule: Q01DX009 (ip), vehicle: Klucel (hydroxypropylcellulose) (HPC) 97 % of control | endpoint: mean survival time, dose: 12.5 mg/kg/injection, schedule: Q01DX009 (ip), vehicle: Klucel (hydroxypropylcellulose) (HPC) 95 % of control

N#C/C(=C\c1ccc(-c2ccccc2)cc1)c1ccc(Cl)cc1
inactive: [4] 87 % of control

Nc1ncnc2nc(C(O)C(O)C(O)C(O)CO)[nH]c12 (centres undefined)
inactive: endpoint: median survival time, dose: 12.5 mg/kg/injection, schedule: Q01DX005 (ip), vehicle: distilled water + Tween-80 98 % of control | endpoint: median survival time, dose: 25.0 mg/kg/injection, schedule: Q01DX005 (ip), vehicle: distilled water + Tween-80 98 % of control | endpoint: median survival time, dose: 50.0 mg/kg/injection, schedule: Q01DX005 (ip), vehicle: distilled water + Tween-80 100 % of control | endpoint: median survival time, dose: 100.0 mg/kg/injection, schedule: Q01DX005 (ip), vehicle: distilled water + Tween-80 97 % of control | endpoint: median survival time, dose: 200.0 mg/kg/injection, schedule: Q01DX005 (ip), vehicle: distilled water + Tween-80 98 % of control

CC1=C[P+](c2ccccc2)(c2ccccc2)C=C(c2ccccc2)O1
inactive: endpoint: median survival time, dose: 1.25 mg/kg/injection, schedule: Q01DX009 (ip), vehicle: suspension in saline 108 % of control | endpoint: median survival time, dose: 2.5 mg/kg/injection, schedule: Q01DX009 (ip), vehicle: suspension in saline 111 % of control | endpoint: median survival time, dose: 5.0 mg/kg/injection, schedule: Q01DX009 (ip), vehicle: suspension in saline 113 % of control | endpoint: median survival time, dose: 10.0 mg/kg/injection, schedule: Q01DX009 (ip), vehicle: suspension in saline 123 % of control | endpoint: median survival time, dose: 20.0 mg/kg/injection, schedule: Q01DX009 (ip), vehicle: suspension in saline 104 % of control

C#CCNc1ncnc2c1ncn2C1OC(CO)C(O)C1O (centres undefined)
inactive: endpoint: mean survival time, dose: 12.5 mg/kg/injection, schedule: Q01DX005 (ip), vehicle: other 96 % of control | endpoint: mean survival time, dose: 25.0 mg/kg/injection, schedule: Q01DX005 (ip), vehicle: other 97 % of control | endpoint: mean survival time, dose: 50.0 mg/kg/injection, schedule: Q01DX005 (ip), vehicle: other 111 % of control | endpoint: mean survival time, dose: 100.0 mg/kg/injection, schedule: Q01DX005 (ip), vehicle: other 114 % of control | endpoint: mean survival time, dose: 200.0 mg/kg/injection, schedule: Q01DX005 (ip), vehicle: other 111 % of control

COC(=O)N/N=C/Cc1ccccc1
inactive: [6] 93 % of control

COc1ccc(NC(=O)CCl)c(OC)c1
inactive: [1] 108 % of control | [2] 97 % of control | [9] 97 % of control

COc1cc2c(cc1OC)C1=NN(c3ccccc3)C(=O)C1CC2 (centres undefined)
inactive: [1] 103 % of control | [2] 95 % of control | [9] 95 % of control

N=c1c2ncn(C3CCCC3)c2ncn1Cc1ccc([N+](=O)[O-])cc1
inactive: endpoint: mean survival time, dose: 75.0 mg/kg/injection, schedule: Q01DX001 (ip), vehicle: other 106 % of control

C=CCNc1n[nH]c(=S)s1
inactive: [3] 100 % of control | [4] 96 % of control | [5] 105 % of control

CC(=O)Nc1ccc([N+](=O)[O-])cc1[N+](=O)[O-]
inactive: [3] 100 % of control | [4] 102 % of control

O=C1CCC(C(=O)O)=NN1
inactive: endpoint: mean survival time, dose: 12.5 mg/kg/injection, schedule: Q01DX009 (ip), vehicle: water 96 % of control | endpoint: mean survival time, dose: 25.0 mg/kg/injection, schedule: Q01DX009 (ip), vehicle: water 101 % of control | endpoint: mean survival time, dose: 50.0 mg/kg/injection, schedule: Q01DX009 (ip), vehicle: water 93 % of control | endpoint: mean survival time, dose: 100.0 mg/kg/injection, schedule: Q01DX009 (ip), vehicle: water 93 % of control | endpoint: mean survival time, dose: 200.0 mg/kg/injection, schedule: Q01DX009 (ip), vehicle: water 90 % of control

COC(=O)c1cc(C)ccc1O
inactive: [6] 96 % of control | [3] 90 % of control | [7] 101 % of control | [4] 93 % of control | [5] 100 % of control

N#Cc1cccc(N)c1
inactive: [6] 106 % of control | [7] 94 % of control | [8] 98 % of control

S=C(Nc1ccccc1)Nc1ccc(NC(=S)Nc2ccccc2)cc1
inactive: [6] 86 % of control | [3] 92 % of control | [4] 92 % of control | [8] 94 % of control | [5] 86 % of control

CC(C)(CO)c1ccc(C(c2ccccc2)c2ccccc2)cc1
inactive: endpoint: mean survival time, dose: 50.0 mg/kg/injection, schedule: Q01DX009 (ip), vehicle: other 96 % of control | endpoint: mean survival time, dose: 100.0 mg/kg/injection, schedule: Q01DX009 (ip), vehicle: other 101 % of control | endpoint: mean survival time, dose: 200.0 mg/kg/injection, schedule: Q01DX009 (ip), vehicle: other 96 % of control

O=C(CI)NCc1cn(C2CC(O)C(CO)O2)c(=O)[nH]c1=O (centres undefined)
inactive: endpoint: mean survival time, dose: 4.0 mg/kg/injection, schedule: Q01DX005 (ip), vehicle: water 106 % of control | endpoint: mean survival time, dose: 8.0 mg/kg/injection, schedule: Q01DX005 (ip), vehicle: water 114 % of control | endpoint: mean survival time, dose: 16.0 mg/kg/injection, schedule: Q01DX005 (ip), vehicle: water 106 % of control | endpoint: mean survival time, dose: 32.0 mg/kg/injection, schedule: Q01DX005 (ip), vehicle: water 111 % of control | endpoint: mean survival time, dose: 64.0 mg/kg/injection, schedule: Q01DX005 (ip), vehicle: water 114 % of control
